We go through two substances from ChEMBL document CHEMBL1127616, “Synthesis, structural characterization, and antitumor properties of a novel class of large-ring platinum(II) chelate complexes incorporating the cis-1,4-diaminocyclohexane ligand in a unique locked boat conformation” (J Med Chem, 1994).

What all share (format): functional, cell-based
Conditions in all cases: Mus musculus

Experiment [1] deals with L1210. In words: Tested for in vitro growth inhibition against murine leukemia cell L1210DACH.
Experiment [2] deals with L1210. In words: Tested for in vitro growth inhibition against murine leukemia cell L1210DDP5.
Experiment [3] deals with L1210. In words: Tested for in vitro growth inhibition against murine leukemia cell L1210PtR4.
In experiment [4] the test system is L1210. In words: Tested for in vitro growth inhibition against murine leukemia cell L1210S.
The test system of experiment [5] is P388. In words: Tested for in vitro growth inhibition against murine leukemia cell P388Pt4.
In experiment [6] the test system is P388. In words: Tested for in vitro growth inhibition against murine leukemia cell P388S.

In the case of CI-973, the ID50 in the experiment on L1210 [1] came out at 1.8 µg/mL; in the experiment with L1210 [2], 3.9 µg/mL; in the experiment with L1210 [3] it was 2.6 µg/mL; in the experiment on L1210 [4], 0.76 µg/mL; with P388 [5], 1.62 µg/mL; in the experiment with P388 [6], 0.1 µg/mL.

Turning to [Pt(1R,2R-dach)Cl2], the ID50 in the experiment with L1210 [1] was found to be 4.57 µg/mL; in the experiment on L1210 [2], 0.164 µg/mL; with L1210 [3] it was 0.161 µg/mL; in the experiment on L1210 [4], 0.059 µg/mL; with P388 [5] it was 0.83 µg/mL; in the experiment on P388 [6], 0.077 µg/mL.
